Laboratory results from patent publication US20250230155A1 (Vanderbilt University, priority 2021, published 2025).
pEC50: −log10 of the molar value. Read-outs that look alike come from different tables or passages of the source.

Target: T1, human mAChR M4 (Homo sapiens, UniProt P08173)
T1 construct: expressed in transfected cells
T1 sequence (P08173 1-479): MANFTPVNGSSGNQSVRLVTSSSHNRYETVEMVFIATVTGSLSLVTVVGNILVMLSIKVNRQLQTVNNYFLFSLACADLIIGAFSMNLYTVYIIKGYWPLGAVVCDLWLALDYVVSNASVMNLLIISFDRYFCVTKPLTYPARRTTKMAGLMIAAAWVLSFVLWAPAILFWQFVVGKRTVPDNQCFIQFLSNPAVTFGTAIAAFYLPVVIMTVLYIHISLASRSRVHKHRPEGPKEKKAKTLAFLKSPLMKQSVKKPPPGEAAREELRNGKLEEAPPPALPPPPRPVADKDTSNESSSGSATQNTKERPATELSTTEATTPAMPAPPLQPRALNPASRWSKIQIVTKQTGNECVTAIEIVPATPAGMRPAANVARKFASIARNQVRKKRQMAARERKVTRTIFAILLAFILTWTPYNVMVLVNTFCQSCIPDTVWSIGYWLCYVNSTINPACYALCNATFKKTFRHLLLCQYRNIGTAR
Experiment: mAChR M4 cell-based functional assay (calcium mobilization, CHO-K1 hM4-Gqi5 cells)
Conditions: for Emax at 30 µM: CHO-K1, % ACh maximum at 30 μM, human M4; for pEC50: increase in the EC20 acetylcholine response, CHO-K1 hM4-Gqi5 cells; for Emax: CHO-K1
Experimental: Human and rat M4 cDNAs, along with the chimeric G protein Gqi5, were transfected into Chinese hamster ovary (CHO-K1) cells purchased from the American Type Culture Collection using Lipofectamine2000. hM4-Gqi5 cells were grown in Ham's F-12 medium containing 10% heat-inactivated fetal bovine serum (FBS), 20 mM HEPES, 50 μg/mL G418 sulfate, and 500 μg/mL Hygromycin B. rM4-Ggi5 cells were grown in DiVEM containing 10% heat-inactivated FBS, 20 mM THEPES, 400 μμg/mL G418 sulfate, and 500 μμg/mL Hygromycin B.
For high throughput measurement of agonist-evoked increases in intracellular calcium, CHO-K1 cells stably expressing muscarinic receptors were plated in growth medium lacking G418 and hygromycin at 15,000 cells/20 μL/well in Greiner 384-well black-walled, tissue culture (TC)-treated, clear-bottom plates (VWR). Cells were incubated overnight at 37° C. and 5% CO2. The next day, cells were washed using an ELX 405 (BioTek) with assay buffer; the final volume was then aspirated to 20 μL. Next, 20 μL of a […] of Fluo-4/acetoxymethyl ester (Invitrogen, Carlsbad, CA), prepared as a 2.3 mM stock in DMSO and mixed in a 1:1 ratio with 10% (w/v) Pluronic F-127 and diluted in assay buffer, was added to the wells and the cell plates were incubated for 50 min at 37° C. and 5% C02. Dye was removed by washing with the ELX 405 and the final volume was aspirated to 20 μL. Compound master plates were formatted in an 11 point concentration-response curve (CRC) format (1:3 dilutions) in 100% DMSO with a starting concentration of 10 mM using a BRAVO liquid handler (Agilent). Test compound CRCs were then transferred to daughter plates (240 nL) using the Echo acoustic plate reformatter (Labcyte, Sunnyvale, CA) and then diluted into assay buffer (40 μL) to a 2× stock using a Thermo Fisher Combi (Thermo Fisher Scientific, Waltham, MA).
Calcium flux was measured using the Functional Drug Screening System (FDSS) 6000 or 7000 (Hamamatsu Corporation, Tokyo, Japan) as an increase in the fluorescent static ratio. Compounds were applied to cells (20 μL, 2×) using the automated system of the FDSS at 2-4 seconds into the protocol and the data were collected at 1 Hz. At 144 seconds, 10 μL of an EC20 concentration of the muscarinic receptor agonist acetylcholine was added (5×), followed by the addition of 12 μL of an EC80 concentration of acetylcholine at the 230 second time point (5×). Agonist activity was analyzed as a concentration-dependent increase in calcium mobilization upon compound addition. Positive allosteric modulator activity was analyzed as a concentration-dependent increase in the EC20 acetylcholine response. Antagonist activity was analyzed as a concentration-dependent decrease in the EC80 acetylcholine response. Concentration-response curves were generated using a four-parameter logistical equation in XLFit curve fitting software (IDBS, Bridgewater, NJ) for Excel (Microsoft, Redmond, WA) or Prism (GraphPad Software, Inc., San Diego, CA).
Compounds were synthesized as described above. Activity (EC50 and Emax) was determined in the mAChR M4 cell-based functional assay as described above and the data are shown in Table 2. The compound number corresponds to the compound numbers used in Table 1.

[1] = positive allosteric modulator activity, read-out: Human M4 EC50
[2] = Human M4 EC50, positive allosteric modulator activity

| Emax at 30 µM | pEC50 [1] | Structure (SMILES) | Emax | pEC50 [2] |
| --- | --- | --- | --- | --- |
| 72% | 6.89 | Cc1cc(C(=O)N2CC3(COC3)C2)nnc1N1CCc2ncc(-c3ccnn3C)cc2C1 [Example 565, (5-methyl-6-(3-(1-methyl-1H-pyrazol-5-yl)-7,8-dihydro-1,6-naphthyridin-6(5H)-yl)pyridazin-3-yl)(2-oxa-6-azaspiro[3.3]heptan-6-yl)methanone] | – | – |
| 63% | 5.57 | Cc1cc(C#N)cnc1N1CCc2ncc(OCCOc3ccccc3)cc2C1 [Example 427, 5-methyl-6-(3-(2-phenoxyethoxy)-7,8-dihydro-1,6-naphthyridin-6(5H)-yl)nicotinonitrile] | – | – |
| 83% | 7.32 | Cc1cc(C(=O)N2CC3(C2)CC(F)(F)C3)nnc1N1CCc2ncc(N3CCCn4nccc43)cc2C1 [Example 555, (6,6-difluoro-2-azaspiro[3.3]heptan-2-yl)(6-(3-(6,7-dihydropyrazolo[1,5-a]pyrimidin-4(5H)-yl)-7,8-dihydro-1,6-naphthyridin-6(5H)-yl)-5-methylpyridazin-3-yl)methanone] | – | – |
| 68% | 6.21 | Cc1c(C#N)nnc(N2CCc3ncc(-c4cnn(C(F)F)c4)cc3C2)c1C [Example 326, 6-(3-(1-(difluoromethyl)-1H-pyrazol-4-yl)-7,8-dihydro-1,6-naphthyridin-6(5H)-yl)-4,5-dimethylpyridazine-3-carbonitrile] | – | – |
| 99% | 7.60 | Cc1nc(C)c(C)c(N2CCc3ncc(N4CCCn5nccc54)cc3C2)n1 [compound 244, 3-(6,7-dihydropyrazolo[1,5-a]pyrimidin-4(5H)-yl)-6-(2,5,6-trimethylpyrimidin-4-yl)-5,6,7,8-tetrahydro-1,6-naphthyridine] | – | – |
| 100% | 6.42 | Cc1nc(N2CCOCC2)nc(N2CCc3ncc(Nc4ccnn4C)cc3C2)c1C [compound 276, 6-(5,6-dimethyl-2-morpholinopyrimidin-4-yl)-N-(1-methyl-1H-pyrazol-5-yl)-5,6,7,8-tetrahydro-1,6-naphthyridin-3-amine] | – | – |
| 88% | 6.97 | Cc1cc(C(=O)N2CC(F)(F)C2)nnc1N1CCc2ncc(-n3cccn3)cc2C1 [Example 533, (6-(3-(1H-pyrazol-1-yl)-7,8-dihydro-1,6-naphthyridin-6(5H)-yl)-5-methylpyridazin-3-yl)(3,3-difluoroazetidin-1-yl)methanone] | – | – |
| – | – | Cc1cc(C#N)cnc1N1CCc2ncc(C3CC3)cc2C1 [Example 330, 6-(3-cyclopropyl-7,8-dihydro-1,6-naphthyridin-6(5H)-yl)-5-methylnicotinonitrile] | 85% | 7.15 |
| 76% | 5.72 | Cc1cc(C(=O)N2CCCC2)nnc1N1CCc2ncc(CC(F)(F)F)cc2C1 [Example 582, (5-methyl-6-(3-(2,2,2-trifluoroethyl)-7,8-dihydro-1,6-naphthyridin-6(5H)-yl)pyridazin-3-yl)(pyrrolidin-1-yl)methanone] | – | – |
| 91% | 5.47 | Cc1c(C(=O)NCc2ccccn2)nnc(N2CCc3ncccc3C2)c1C [compound 137, 6-(7,8-dihydro-5H-1,6-naphthyridin-6-yl)-4,5-dimethyl-N-(2-pyridylmethyl)pyridazine-3-carboxamide] | – | – |
| 92% | 6.82 | Cc1cnccc1CNC(=O)c1cnc(N2CCc3ncc(-c4cn(C)nc4C)cc3C2)c(C)c1 [Example 451, 6-(3-(1,3-dimethyl-1/-pyrazol-4-yl)-7,8-dihydro-1,6-naphthyridin-6(5H)-yl)-5-methyl-N-((3-methylpyridin-4-yl)methyl)nicotinamide] | – | – |
| 87% | 6.13 | Cc1nn(C)cc1-c1cnc2c(c1)CN(c1nc(NCC(C)(C)O)nc(C)c1C)CC2 [compound 274, 1-((4-(3-(1,3-dimethyl-1H-pyrazol-4-yl)-7,8-dihydro-1,6-naphthyridin-6(5H)-yl)-5,6-dimethylpyrimidin-2-yl)amino)-2-methylpropan-2-ol] | – | – |
| 81% | 6.17 | Cc1cc(C#N)cnc1N1CCc2ncc(-c3cnn(Cc4ccccc4)c3)cc2C1 [compound 97, 6-[3-(1-benzylpyrazol-4-yl)-7,8-dihydro-5H-1,6-naphthyridin-6-yl]-5-methyl-pyridine-3-carbonitrile] | – | – |
| 81% | 6.53 | Cc1cc(C#N)nnc1N1CCc2ncc(Oc3ccc(F)cc3F)cc2C1 [Example 355, 6-(3-(2,4-difluorophenoxy)-7,8-dihydro-1,6-naphthyridin-6(5H)-yl)-5-methylpyridazine-3-carbonitrile] | – | – |
| 94% | 5.77 | Cc1ccc(F)c(Oc2cnc3c(c2)CN(c2ncc(C#N)cc2C)CC3)c1 [Example 368, 6-(3-(2-fluoro-5-methylphenoxy)-7,8-dihydro-1,6-naphthyridin-6(5H)-yl)-5-methylnicotinonitrile] | – | – |
| 94% | 6.28 | Cc1cc(C#N)nnc1N1CCc2ncc(CC(F)(F)F)cc2C1 [Example 422, 5-methyl-6-(3-(2,2,2-trifluoroethyl)-7,8-dihydro-1,6-naphthyridin-6(5H)-yl)pyridazine-3-carbonitrile] | – | – |
| 90% | 7.11 | Cc1cc(C(=O)N2CC(Cl)C2)nnc1N1CCc2ncc(-n3cccn3)cc2C1 [Example 532, (6-(3-(1H-pyrazol-1-yl)-7,8-dihydro-1,6-naphthyridin-6(5H)-yl)-5-methylpyridazin-3-yl)(3-chloroazetidin-1-yl)methanone] | – | – |
| – | – | Cc1cnc2c(c1)CN(c1ncc(C#N)cc1C)CC2 [compound 179, 5-methyl-6-(3-methyl-7,8-dihydro-5H-1,6-naphthyridin-6-yl)pyridine-3-carbonitrile] | 98% | 7.00 |
| 89% | 6.84 | Cc1cc(C(=O)NCc2nccs2)cnc1N1CCc2ncc(-c3cccnc3F)cc2C1 [compound 175, 6-[3-(2-fluoro-3-pyridyl)-7,8-dihydro-5H-1,6-naphthyridin-6-yl]-5-methyl-N-(thiazol-2-ylmethyl)pyridine-3-carboxamide] | – | – |
| 57% | 5.46 | Cc1cc(C(=O)NCc2ccc3nccnc3c2)cnc1N1CCc2ncccc2C1 [compound 157, 6-(7,8-dihydro-5H-1,6-naphthyridin-6-yl)-5-methyl-N-(quinoxalin-6-ylmethyl)pyridine-3-carboxamide] | – | – |
| 94% | 6.70 | Cc1nc(Cl)nc(N2CCc3ncc(C(F)(F)F)cc3C2)c1C [compound 253, 6-(2-chloro-5,6-dimethylpyrimidin-4-yl)-3-(trifluoromethyl)-5,6,7,8-tetrahydro-1,6-naphthyridine] | – | – |
| 84% | 6.18 | Cc1nc(Cl)c(C)c(N2CCc3ncc(Nc4cccc(F)c4F)cc3C2)n1 [compound 86, 6-(6-chloro-2,5-dimethyl-pyrimidin-4-yl)-N-(2,3-difluorophenyl)-7,8-dihydro-5H-1,6-naphthyridin-3-amine] | – | – |

| Structure (SMILES) | Emax at 30 µM | pEC50 [1] | Emax | pEC50 [2] |
| --- | --- | --- | --- | --- |
| COC(=O)c1cnc(N2CCc3ncccc3C2)c(C)c1 [compound 71, methyl 6-(7,8-dihydro-5H-1,6-naphthyridin-6-yl)-5-methyl-pyridine-3-carboxylate] | – | 5.47 | 102% | – |
